Tests used:
[1] = test system: Isabrown laying hens; experiment: Test 3: feed intake and egg laying of laying hens subject to thermal stress; format: in vivo, hen
Experimental: Test 3: Study of the Effect of the Administration of a Feed Comprising the Adjuvant with the Scutellaria baicalensis Extract on a Solid Vehicle on the Feed Intake of Laying Hens Subject to Thermal Stress 72 Isabrown laying hens thirty weeks old at the beginning of the test were divided into three groups of twelve cages each containing two hens. The test was carried out until the hens were 38 weeks old. Group 1 received the control feed. Group 2, also called the OTC group, received the control feed supplemented with an antibiotic, 400 ppm of oxytetracycline. Group 3, also called the SCU group, received the control feed supplemented with an extract from the root of Scutellaria baicalensis providing 6 mg of baicalin/kg of feed. After three weeks of distribution of the experimental feed, the hens were subject to a variation in temperature. The temperature of the environment increased from 22° C. (thermal comfort) to 35° C. for 5 days. Food intake, number of eggs laid and average weight of the eggs were recorded every week and every day during the week of the high temperature as well as during the following week. The test was divided into three phases: pre-heat increase phase, thermal stress phase and post-high temperature stress phase.

[2] = test system: piglets; experiment: Test 5: state of health and resistance to disease of piglets subject to a stress; format: in vivo, pig; details: 100 ppm in the feed
Text: Test 5: Study of the Effect of the Administration of a Feed Comprising the Adjuvant with the Extract of Scutellaria baicalensis on a Solid Vehicle on the Improvement in the State of Health and Resistance to Disease of Piglets Subject to a Stress
The piglets were 42 days old at the beginning of the test. Three groups were formed: a control group, a group receiving the same feed supplemented with 100 ppm of an antibiotic (tylosine) and finally the last group receiving a feed supplemented with 100 ppm of an extract of Scutellaria baicalensis, that is 30 ppm of baicalin per kg of feed. The diseases were noted as were the curative treatments used in each groups.

Compound: CN(C)[C@@H]1C(O)=C(C(N)=O)C(=O)[C@@]2(O)C(O)=C3C(=O)c4c(O)cccc4[C@@](C)(O)[C@H]3[C@H](O)[C@@H]12 [OTC, oxytetracycline]
- egg-laying rate ([1]; 2 weeks including the thermal stress phase and the following week, control 85.2%): 88.5%
- daily feed intake per hen ([1]; thermal stress phase (35° C. for 5 days), OTC 400 ppm in feed, SCU 6 mg baicalin/kg of feed, control 50.9 g): 53.5 g

Compound: CC[C@H]1OC(=O)C[C@@H](O)[C@H](C)[C@@H](O[C@@H]2O[C@H](C)[C@@H](O[C@H]3C[C@@](C)(O)[C@@H](O)[C@H](C)O3)[C@H](N(C)C)[C@H]2O)[C@@H](CC=O)C[C@@H](C)C(=O)/C=C/C(C)=C/[C@@H]1CO[C@@H]1O[C@H](C)[C@@H](O)[C@@H](OC)[C@H]1OC [Tylosine, tylosine]
- % Pigs not treated [2]: 48%
- % Pigs treated [2]: 52%
- % treatments [2]: 56.0%
- Mortality + elimination (%) [2]: 4.0%
- Number of treatments: Cough [2]: 7
- Number of treatments: Lame [2]: 0
- Number of treatments: Lean [2]: 2
- Number of treatments: Nervous symptoms [2]: 1
- Number of treatments: Watery diarrhoea [2]: 4
- Pigs treated per cause: Cough [2]: 7
- Pigs treated per cause: Lame [2]: 0
- Pigs treated per cause: Lean [2]: 2
- Pigs treated per cause: Nervous symptoms [2]: 1
- Pigs treated per cause: Watery diarrhoea [2]: 4
- Number of pigs treated ([2]; P (Chi2) <0.05): 13
- Number of treatments ([2]; curative treatments, P (Chi2) <0.05): 14
- Withdrawn from test ([2]; number of pigs): 1
- Number of deaths ([2]; piglets 42 days old at start): 0

— patent US11077127B2, “Adjuvant containing baicalin, particularly from a Scutellaria baicalensis extract, and animal feed containing such an adjuvant” (DELTAVIT, priority 2014, dated 2021)
